Columns and labels:
Format in all cases: in vivo
[1] = tested on: Eleusine indica; experiment: Indoor herbicide activity determination, Seed Treatment; pre-emergence (soil spray)
In short: (§1)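 Pre-emergence soil spray; sandy soil pH 6.1, OM 1%, 7 cm pots; seeds covered, wetted from below, 24 h incubation under light at constant temperature; spray tower, 300 mm height, 390 mL/min nozzle flow; readout = % fresh-weight inhibition vs control at 21 d.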

[2] = tested on: Alopecurus japonicus; experiment: as above
In short: as §1

[3] = tested on: Leptochloa chinensis; experiment: as above
In short: as §1

[4] = tested on: Lolium multiflorum; experiment: as above
In short: as §1

[5] = tested on: Alopecurus myosuroides; experiment: as above
In short: as §1

[6] = tested on: Eclipta prostrata; experiment: Indoor herbicide activity determination, post-emergence (stem and leaf spray at 2-4 leaf stage); settings: 504 h, determined 21 days later, read-out: Inhibition rate of fresh weight, Eclipta prostrata; for inhibition at 60 g/ha: 60 g a.i./ha; for inhibition at 30 g/ha: 30 g a.i./ha
Excerpt: (§2) The testing method for herbicide activity of the compound of the present invention was as follows:
(§3) Post-emergence: an appropriate quantity of seeds of gramineous weeds (Echinochloa crusgalli, Eleusine indica, Digitaria sanguinalis, Alopecurus japonicus, Beckmannia syzigachne, Leptochloa chinensis, Polypogon fugax, Alopecurus aequalis, Lolium multiflorum, Poa annua, Aegilops tauschii, Avena fatua, Alopecurus myosuroides, Alopecurus japonicus and Alopecurus aequalis), broad-leaved weeds (Eclipta prostrata, Amaranthus retroflexus, Rorippa indica, Malachium aquaticum, Veronica polita, Conyza canadensis, Sesbania cannabina, Sagittariatrifolia and Schoenoplectiella juncoides), and Cyperus iria were sown in plastic pots having a diameter of 7 cm and holes at the bottom and filled with nutrient soil (sandy soil, pH 6.1, organic matter 1%) respectively, the seeds were covered with an appropriate amount of soil after being sown, then the soil was wetted with water from the bottom, the seeds were cultured in a constant-temperature illuminated culture room until a 2-4 leaf stage, and stems and leaves underwent spray treatment. After the treatment, the test materials were placed in a laboratory and cultured in the constant-temperature illuminated culture room after the liquid was naturally dry in the shade, and results were determined 21 days later. Inhibition rate of fresh weight % = (1−(fresh weight of treated plants)/(fresh weight of control plants)) × 100% [formula]

[7] = tested on: Cyperus iria; experiment: as above; settings: 504 h, determined 21 days later, read-out: Inhibition rate of fresh weight, Cyperus iria; for inhibition at 60 g/ha: 60 g a.i./ha; for inhibition at 30 g/ha: 30 g a.i./ha
Excerpt: as §2, §3

[8] = tested on: Digitaria sanguinalis; experiment: as above; settings: 504 h, determined 21 days later, read-out: Inhibition rate of fresh weight, Digitaria sanguinalis; for inhibition at 60 g/ha: 60 g a.i./ha; for inhibition at 30 g/ha: 30 g a.i./ha
Excerpt: as §2, §3

[9] = tested on: Eclipta prostrata; experiment: Indoor herbicide activity determination, Seed Treatment; pre-emergence (soil spray); settings: read-out: Herbicidal activities (inhibition rate) Eclipta prostrata; for inhibition at 60 g/ha: 60 g a.i./ha; for inhibition at 120 g/ha: 120 g a.i./ha
In short: as §1

[10] = tested on: Cyperus iria; experiment: as above; settings: read-out: Herbicidal activities (inhibition rate) Cyperus iria; for inhibition at 60 g/ha: 60 g a.i./ha; for inhibition at 120 g/ha: 120 g a.i./ha
In short: as §1

[11] = tested on: Digitaria sanguinalis; experiment: as above; settings: read-out: Herbicidal activities (inhibition rate) Digitaria sanguinalis; for inhibition at 60 g/ha: 60 g a.i./ha; for inhibition at 120 g/ha: 120 g a.i./ha
In short: as §1

[12] = tested on: Aegilops tauschii; experiment: as above; settings: read-out: Herbicidal activities (inhibition rate) Aegilops tauschii; for inhibition at 60 g/ha: 60 g a.i./ha; for inhibition at 120 g/ha: 120 g a.i./ha
In short: as §1

## C=CC1(C(=O)N[C@H]2C[C@@H](C(=O)O)C2)CC(c2cc(F)cc(Cl)c2)=NO1 (mixture of isomers) [I-27]
[1]; Dosage 240 g a.i./ha
  Herbicidal activities, Eleusine indica (inhibition rate class): A (A indicates that the inhibition rate was greater than or equal to 80% to 100%)
[2]; Dosage 240 g a.i./ha
  Herbicidal activities, Alopecurus japonicus (inhibition rate class): A (A indicates that the inhibition rate was greater than or equal to 80% to 100%)
[3]; Dosage 240 g a.i./ha
  Herbicidal activities, Leptochloa chinensis (inhibition rate class): A (A indicates that the inhibition rate was greater than or equal to 80% to 100%)
[4]; Dosage 240 g a.i./ha
  Herbicidal activities, Lolium multiflorum (inhibition rate class): A (A indicates that the inhibition rate was greater than or equal to 80% to 100%)
[5]; Dosage 240 g a.i./ha
  Herbicidal activities, Alopecurus myosuroides (inhibition rate class): A (A indicates that the inhibition rate was greater than or equal to 80% to 100%)
[6]
  inhibition at 60 g/ha: 40 to 60%
[7]
  inhibition at 60 g/ha: 80 to 100%
[8]
  inhibition at 60 g/ha: 80 to 100%

## C=CC1(C(=O)N[C@H]2C[C@@H](C(=O)OC)C2)CC(c2cc(Cl)cc(C(F)(F)F)c2)=NO1 (mixture of isomers) [I-55]
[2]; Dosage 240 g a.i./ha
  Herbicidal activities, Alopecurus japonicus (inhibition rate class): A (A indicates that the inhibition rate was greater than or equal to 80% to 100%)
[3]; Dosage 240 g a.i./ha
  Herbicidal activities, Leptochloa chinensis (inhibition rate class): A (A indicates that the inhibition rate was greater than or equal to 80% to 100%)
[4]; Dosage 240 g a.i./ha
  Herbicidal activities, Lolium multiflorum (inhibition rate class): A (A indicates that the inhibition rate was greater than or equal to 80% to 100%)
[5]; Dosage 240 g a.i./ha
  Herbicidal activities, Alopecurus myosuroides (inhibition rate class): A (A indicates that the inhibition rate was greater than or equal to 80% to 100%)
[6]
  inhibition at 60 g/ha: 60 to 80%
[7]
  inhibition at 60 g/ha: 80 to 100%
[8]
  inhibition at 60 g/ha: 60 to 80%

## COC(=O)[C@H]1C[C@@H](NC(=O)C2(C(F)(F)F)CC(c3cc(Cl)cc(C(F)(F)F)c3)=NO2)C1 (relative stereo) [I-247]
[2]; Dosage 240 g a.i./ha
  Herbicidal activities, Alopecurus japonicus (inhibition rate class): A (A indicates that the inhibition rate was greater than or equal to 80% to 100%)
[3]; Dosage 240 g a.i./ha
  Herbicidal activities, Leptochloa chinensis (inhibition rate class): A (A indicates that the inhibition rate was greater than or equal to 80% to 100%)
[4]; Dosage 240 g a.i./ha
  Herbicidal activities, Lolium multiflorum (inhibition rate class): A (A indicates that the inhibition rate was greater than or equal to 80% to 100%)
[5]; Dosage 240 g a.i./ha
  Herbicidal activities, Alopecurus myosuroides (inhibition rate class): A (A indicates that the inhibition rate was greater than or equal to 80% to 100%)
[6]
  inhibition at 60 g/ha: 60 to 80%
[7]
  inhibition at 60 g/ha: 80 to 100%
[8]
  inhibition at 60 g/ha: 80 to 100%

## COC(=O)[C@H]1C[C@@H](NC(=O)C2(CF)CC(c3cc(F)cc(F)c3)=NO2)C1 (relative stereo) [I-310]
[2]; Dosage 240 g a.i./ha
  Herbicidal activities, Alopecurus japonicus (inhibition rate class): A (A indicates that the inhibition rate was greater than or equal to 80% to 100%)
[3]; Dosage 240 g a.i./ha
  Herbicidal activities, Leptochloa chinensis (inhibition rate class): A (A indicates that the inhibition rate was greater than or equal to 80% to 100%)
[4]; Dosage 240 g a.i./ha
  Herbicidal activities, Lolium multiflorum (inhibition rate class): A (A indicates that the inhibition rate was greater than or equal to 80% to 100%)
[5]; Dosage 240 g a.i./ha
  Herbicidal activities, Alopecurus myosuroides (inhibition rate class): A (A indicates that the inhibition rate was greater than or equal to 80% to 100%)
[6]
  inhibition at 60 g/ha: 60 to 80%
[7]
  inhibition at 60 g/ha: 80 to 100%
[8]
  inhibition at 60 g/ha: 80 to 100%

## C=C[C@]1(C(=O)N[C@H]2C=C[C@@H](C(=O)O)C2)CC(c2cc(F)cc(F)c2)=NO1 [CK1, reference compound]
[6]
  inhibition at 30 g/ha: < 20%
[7]
  inhibition at 30 g/ha: 60 to 80%
[8]
  inhibition at 30 g/ha: 60 to 80%

## C=C[C@]1(C(=O)N[C@H]2C=C[C@@H](C(=O)OC)C2)CC(c2cc(F)cc(F)c2)=NO1 [CK2, reference compound]
[6]
  inhibition at 30 g/ha: 20 to 40%
[7]
  inhibition at 30 g/ha: 60 to 80%
[8]
  inhibition at 30 g/ha: 60 to 80%

## C=C[C@]1(C(=O)N[C@H]2C=C[C@@H](C(=O)OC)C2)CC(c2cc(Cl)cc(C(F)(F)F)c2)=NO1 [I-477]
[1]; Dosage 120 g a.i./ha
  Herbicidal activity (inhibition rate class), Eleusine indica: A (A indicates that the inhibition rate was greater than or equal to 80% to 100%)
[2]; Dosage 120 g a.i./ha
  Herbicidal activity (inhibition rate class), Alopecurus japonicus: B (B indicates that the inhibition rate was greater than or equal to 60% to less than 80%)
[3]; Dosage 120 g a.i./ha
  Herbicidal activity (inhibition rate class), Leptochloa chinensis: A (A indicates that the inhibition rate was greater than or equal to 80% to 100%)
[9]
  inhibition at 60 g/ha: 40 to 60%
[10]
  inhibition at 60 g/ha: 60 to 80%
[11]
  inhibition at 60 g/ha: 60 to 80%
[12]
  inhibition at 60 g/ha: 80 to 100%
[7]
  inhibition at 30 g/ha: 80 to 100%
[8]
  inhibition at 30 g/ha: 60 to 80%

## COC(=O)[C@@H]1C=C[C@H](NC(=O)C2(C)CC(c3cc(F)cc(OC(F)F)c3)=NO2)C1 (some centres unmarked) [I-505]
[1]; Dosage 240 g a.i./ha
  Herbicidal activity (inhibition rate class), Eleusine indica: B (B indicates that the inhibition rate was greater than or equal to 60% to less than 80%)
[2]; Dosage 240 g a.i./ha
  Herbicidal activity (inhibition rate class), Alopecurus japonicus: A (A indicates that the inhibition rate was greater than or equal to 80% to 100%)
[3]; Dosage 240 g a.i./ha
  Herbicidal activity (inhibition rate class), Leptochloa chinensis: A (A indicates that the inhibition rate was greater than or equal to 80% to 100%)
[9]
  inhibition at 120 g/ha: 80 to 100%
[10]
  inhibition at 120 g/ha: 80 to 100%
[4]; Dosage 240 g a.i./ha
  Herbicidal activity (inhibition rate class), Lolium multiflorum: A (A indicates that the inhibition rate was greater than or equal to 80% to 100%)
[11]
  inhibition at 120 g/ha: 80 to 100%
[12]
  inhibition at 120 g/ha: 80 to 100%
[5]; Dosage 240 g a.i./ha
  Herbicidal activity (inhibition rate class), Alopecurus myosuroides: A (A indicates that the inhibition rate was greater than or equal to 80% to 100%)

## COC(=O)[C@@H]1C=C[C@H](NC(=O)C2(C)CC(c3cc(Cl)cc(C(F)(F)F)c3)=NO2)C1 (some centres unmarked) [I-511]
[1]; Dosage 240 g a.i./ha
  Herbicidal activity (inhibition rate class), Eleusine indica: A (A indicates that the inhibition rate was greater than or equal to 80% to 100%)
[2]; Dosage 240 g a.i./ha
  Herbicidal activity (inhibition rate class), Alopecurus japonicus: A (A indicates that the inhibition rate was greater than or equal to 80% to 100%)
[3]; Dosage 240 g a.i./ha
  Herbicidal activity (inhibition rate class), Leptochloa chinensis: A (A indicates that the inhibition rate was greater than or equal to 80% to 100%)
[9]
  inhibition at 120 g/ha: 80 to 100%
[10]
  inhibition at 120 g/ha: 80 to 100%
[4]; Dosage 240 g a.i./ha
  Herbicidal activity (inhibition rate class), Lolium multiflorum: A (A indicates that the inhibition rate was greater than or equal to 80% to 100%)
[11]
  inhibition at 120 g/ha: 80 to 100%
[12]
  inhibition at 120 g/ha: 80 to 100%
[5]; Dosage 240 g a.i./ha
  Herbicidal activity (inhibition rate class), Alopecurus myosuroides: A (A indicates that the inhibition rate was greater than or equal to 80% to 100%)

## O=C(O)[C@@H]1C=C[C@H](NC(=O)[C@@]2(C(F)(F)F)CC(c3cc(F)cc(C(F)(F)F)c3)=NO2)C1 [I-516]
[1]; Dosage 120 g a.i./ha
  Herbicidal activity (inhibition rate class), Eleusine indica: A (A indicates that the inhibition rate was greater than or equal to 80% to 100%)
[2]; Dosage 120 g a.i./ha
  Herbicidal activity (inhibition rate class), Alopecurus japonicus: A (A indicates that the inhibition rate was greater than or equal to 80% to 100%)
[3]; Dosage 120 g a.i./ha
  Herbicidal activity (inhibition rate class), Leptochloa chinensis: A (A indicates that the inhibition rate was greater than or equal to 80% to 100%)
[9]
  inhibition at 60 g/ha: 60 to 80%
[10]
  inhibition at 60 g/ha: 80 to 100%
[4]; Dosage 120 g a.i./ha
  Herbicidal activity (inhibition rate class), Lolium multiflorum: A (A indicates that the inhibition rate was greater than or equal to 80% to 100%)
[11]
  inhibition at 60 g/ha: 80 to 100%
[12]
  inhibition at 60 g/ha: 80 to 100%
[5]; Dosage 120 g a.i./ha
  Herbicidal activity (inhibition rate class), Alopecurus myosuroides: A (A indicates that the inhibition rate was greater than or equal to 80% to 100%)

## C#C[C@@H](C)OC(=O)[C@@H]1C=C[C@H](NC(=O)[C@@]2(C(F)(F)F)CC(c3cc(F)cc(C(F)(F)F)c3)=NO2)C1 [I-521]
[1]; Dosage 120 g a.i./ha
  Herbicidal activity (inhibition rate class), Eleusine indica: A (A indicates that the inhibition rate was greater than or equal to 80% to 100%)
[2]; Dosage 120 g a.i./ha
  Herbicidal activity (inhibition rate class), Alopecurus japonicus: A (A indicates that the inhibition rate was greater than or equal to 80% to 100%)
[3]; Dosage 120 g a.i./ha
  Herbicidal activity (inhibition rate class), Leptochloa chinensis: A (A indicates that the inhibition rate was greater than or equal to 80% to 100%)
[9]
  inhibition at 60 g/ha: 80 to 100%
[10]
  inhibition at 60 g/ha: 80 to 100%
[4]; Dosage 120 g a.i./ha
  Herbicidal activity (inhibition rate class), Lolium multiflorum: A (A indicates that the inhibition rate was greater than or equal to 80% to 100%)
[11]
  inhibition at 60 g/ha: 80 to 100%
[12]
  inhibition at 60 g/ha: 80 to 100%
[5]; Dosage 120 g a.i./ha
  Herbicidal activity (inhibition rate class), Alopecurus myosuroides: A (A indicates that the inhibition rate was greater than or equal to 80% to 100%)
